Measured values from patent publication US20100041662A1, “Heterocyclic compounds as antiinflammatory agents” (priority 2006, published 2010).
Each block holds one molecule with its values, some of them ahead of it.

Columns and labels:
[1] = target: T1, human ALK5 (ALK5 T204D kinase domain) (Homo sapiens, UniProt P36897, T204D); assay: ALK5 kinase activity, [33P] phosphate incorporation into casein; assay type: biochemical; details: casein substrate
T1 construct: The kinase domain of human ALK5 (amino acids 200-503) is fused to an N-terminal histidine tag; made in house; host or cells: insect cells (baculovirus)
T1 sequence (P36897 200-503 T204D): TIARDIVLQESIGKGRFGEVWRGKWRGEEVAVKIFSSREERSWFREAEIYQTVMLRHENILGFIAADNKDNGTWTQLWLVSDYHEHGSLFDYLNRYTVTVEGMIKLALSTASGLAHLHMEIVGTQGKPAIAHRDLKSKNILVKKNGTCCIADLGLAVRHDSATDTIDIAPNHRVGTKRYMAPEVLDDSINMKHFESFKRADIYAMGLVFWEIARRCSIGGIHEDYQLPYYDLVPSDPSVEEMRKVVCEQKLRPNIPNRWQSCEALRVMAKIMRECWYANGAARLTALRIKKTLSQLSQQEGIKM
Experimental: The kinase activity of ALK5 is assessed by measuring radiolabelled phosphate [33P] incorporation in to the generic substrate, casein. The kinase domain of human ALK5 (amino acids 200-503) is fused to an N-terminal histidine tag. The kinase activity of ALK5 is rendered constitutive via point mutation at amino acid 204 (threonine to aspartate modification, ALK5 T204D) and the kinase construct is engineered to be expressed from a baculovirus expression construct in insect cells. The purified, recombinantly-expressed histidine-tagged ALK5 T204D protein is dissolved at 5.4 mg/ml in 50 mM Tris-HCl pH 8.0, 150 mM NaCl, 5 mM DTT. ALK5 T204D is dissolved to 2.5 μg/ml in assay buffer (Assay buffer: 20 mM Tris-HCl pH 7.4, 10 mM MgCl2, 2 mM MnCl2) on the day of use.
Test compounds and reference compounds are dissolved in assay buffer without DTT containing 5% (v/v) DMSO. Stock solutions of test and reference compounds are diluted in assay buffer with DTT (1.25 mM) containing 4.5% (v/v) DMSO. 10 μl of test or reference compound are added to the appropriate wells of 96 well U-bottomed plate. Total enzyme activity is determined by measuring ALK5 T204D activity in the absence of ALK5 kinase inhibitor reference compounds. Non-specific binding (NSB) is determined by measuring the activity of ALK5 T204D in the presence of ALK5 kinase inhibitor reference compounds. 10 μl of dephosphorylated casein stock solution (dephosphorylated casein is dissolved in ddH2O at 20 mg/ml) is added per well (200 μg/well final assay concentration). 20 μl of ALK5 T204D (2.5 μg/ml solution) is added per well (50 ng/well final assay concentration). The plates are left to incubate at room temperature for 10 minutes.
10 μl of ATP mix is added to the well to initiate the reaction (0.66 nM [^33P]ATP/1 μM unlabelled ATP/well final assay concentration). The ATP mix is prepared as follows, unlabelled ATP (3 mM) is dissolved in ddH2O and pH adjusted to 7.4. The stock concentration of [^33P]ATP is 10 μCi/μl. The appropriate volume of [^33P]ATP is added to unlabelled ATP solution such that the final assay concentration per well is 0.1 μCi. Following addition of the ATP mix, the plates are incubated at room temperature for 50 minutes. The kinase reaction is terminated by the addition of 50 μL Stop Buffer (20 mM Tris-HCl pH 7.4, 10 mM EDTA).
75 μl/well from the reaction plate is transferred to a Multiscreen-IP plate (MultiScreen-IP plates are prepared by added 50 μL of 70% (v/v) ethanol per well and incubated for 5 minutes at room temperature. The ethanol is removed by aspiration via a MultiScreen HTS Vacuum Manifold unit (Millipore, Cat no: MSVMHT500). The plates are washed twice by adding 200 μl/well ddH2O). The MultiScreen-IP plate is incubated at room temperature for 30 minutes to allowing binding of casein to the plate. The MultiScreen-IP plates are washed three times by adding 200 μl/well 100 mM phosphoric acid solution and the gasket is carefully removed from the back of the MultiScreen-IP plate and the plate dried in the oven for 30 minutes. The MultiScreen-IP plate is backsealed, 50 μL of Microscint™20 is added, then the plates are topsealed and radiolabelled casein detected and quantified on a TopCount™ plate-reader using the ^33P scintillation protocol.

[2] = target: T2, JAK2 (GST-JAK2(808-1132)) (Homo sapiens, UniProt O60674); assay: JAK/TYK-kinase family profiling, Caliper mobility shift assay; assay type: biochemical; details: 20 μM ATP, JAK3tide substrate
T2 construct: GST-JAK2(808-1132) was purchased from Invitrogen (Carlsbad, USA, #4288); purchased Invitrogen (Carlsbad, USA) #4288
T2 sequence (O60674 808-1132): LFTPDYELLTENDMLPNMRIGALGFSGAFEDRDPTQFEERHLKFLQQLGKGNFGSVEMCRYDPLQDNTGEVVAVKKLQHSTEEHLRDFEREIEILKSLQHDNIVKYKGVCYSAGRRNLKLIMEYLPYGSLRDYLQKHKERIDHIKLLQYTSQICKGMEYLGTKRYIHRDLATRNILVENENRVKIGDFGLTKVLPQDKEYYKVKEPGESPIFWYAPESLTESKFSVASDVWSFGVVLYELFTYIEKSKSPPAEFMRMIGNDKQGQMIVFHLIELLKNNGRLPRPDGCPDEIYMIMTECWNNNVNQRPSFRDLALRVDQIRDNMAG
Excerpt: All four kinases of the JAK/TYK-kinase family were used as purified recombinant GST-fusion proteins, containing the active kinase domains. GST-JAK1(866-1154), GST-JAK3(811-1124), and GST-TYK2(888-1187) were expressed and purified by affinity chromatography at the EPK biology unit. GST-JAK2(808-1132) was purchased from Invitrogen (Carlsbad, USA, #4288).
The kinase assays were based on the Caliper mobility shift assay using the LabChip 3000 systems. This technology is similar to capillary electrophoresis and uses charge driven separation of substrate and product in a microfluidic chip.
All kinase reactions were performed in 384 well microtiter plates in a total reaction volume of 18 μl. The assay plates were prepared with 0.1 μl per well of test compound in the appropriate test concentration, as described under the section “preparation of compound dilutions”. The reactions were started by combining 9 μl of substrate mix (consisting of peptide and ATP) with 9 μl of kinase dilution. The reactions were incubated for 60 minutes at 30° C. and stopped by adding 70 μl of stop buffer (100 mM Hepes, 5% DMSO, 0.1% Coating reagent, 10 mM EDTA, 0.015% Brij 35).
Fluorescently labeled synthetic peptides were used as substrates in all reactions. A peptide derived from the sequence of IRS-1 (IRS-1 peptide, FITC-Ahx-KKSRGDYMTMQIG-NH2) was used for JAK1 and TYK2 and a peptide named JAK3tide (FITC-GGEEEEYFELVKKKK-NH2) for JAK2 and JAK3. Specific assay conditions are described in Table 1:
The terminated reactions were transferred to the Caliper LabChip 3000 reader and the turnover of each reaction was measured by determining the substrate/product ratio.
Test compounds were dissolved in DMSO (10 mM) and transferred into 1.4 mL flat bottom or V-shaped Matrix tubes carrying a unique 2D matrix chip by individual compound hubs. The numbers of these chips were distinctively linked to the individual compound identification numbers. The stock solutions were stored at −20° C. if not used immediately. For the test procedure the vials were defrosted and identified by a scanner whereby a working sheet was generated that guided the subsequent working steps.
Compound dilutions were made in 96 well plates. This format enabled the assay of maximally 40 individual test compounds at 8 concentrations (single points) including 4 reference compounds. The dilution protocol included the production of pre-dilution plates, master plates and assay plates:
Pre-dilution plates: 96 polypropylene well plates were used as pre-dilution plates. A total of 4 pre-dilution plates were prepared including 10 test compounds each on the plate positions A1-A10, one standard compound at A11 and one DMSO control at A12. All dilution steps were done on a HamiltonSTAR robot. Master plates: 100 μL of individual compound dilutions including standard compound and controls of the 4 “pre-dilution plates” were transferred into a 384 “master plate” including the following concentrations 1′820, 564, 182, 54.6, 18.2, 5.46, 1.82 and 0.546 μM, respectively in 90% of DMSO. Assay plates: Identical assay plates were then prepared by pipetting […] each of compound dilutions of the master plates into 384-well “assay plates”. In the following the compounds were mixed with 9 μL of assays components plus 9 μL enzyme corresponding to a 1:181 dilution steps enabling the final concentration of 10, 3.0, 1.0, 0.3, 0.1, 0.03, 0.01 and 0.003 μM, respectively. The preparation of the master plates were handled by the Matrix PlateMate Plus robot and replication of assay plates by the HummingBird robot.

[3] = system: bleomycin-induced pulmonary fibrosis; details: bleomycin-treated rats; cited from earlier work

Molecule: CN1CCN(C(=O)c2ccc(-c3cnc4ccc(NCc5cc(F)ccc5F)nn34)cc2)CC1 [Example 2.1, {4-[6-(2,5-Difluoro-benzylamino)-imidazo[1,2-b]pyridazin-3-yl]-phenyl}-(4-methyl-piperazin-1-yl)-methanone]
IC50 [2]: 16 nM

Molecule: O=C(NC1CCOCC1)c1ccc(-c2cnc3ccc(NCc4cc(F)ccc4F)nn23)cc1 [Example 2.7, 4-[6-(2,5-Difluorobenzylamino)-imidazo[1,2-b]pyridazin-3-yl]-N-(tetrahydro-pyran-4-yl)-benzamide]
IC50 [2]: 13 nM

Molecule: CN(C)C1CCN(C(=O)c2ccc(-c3cnc4ccc(NCc5cc(F)ccc5F)nn34)cc2)CC1 [Example 2.3, {4-[6-(2,5-Difluorobenzylamino)-imidazo[1,2-b]pyridazin-3-yl]-phenyl}-(4-dimethylamino-piperidin-1-yl)-methanone]
IC50 [2]: 14 nM

Molecule: CCN1CCCC1CNC(=O)c1ccc(-c2cnc3ccc(NCc4cc(F)ccc4F)nn23)cc1 (stereo not drawn) [Example 2.6, 4-[6-(2,5-Difluoro-benzylamino)-imidazo[1,2-b]pyridazin-3-yl]-N-(1-ethyl-pyrrolidin-2-ylmethyl)-benzamide]
IC50 [2]: 11 nM

Molecule: O=C(c1ccc(-c2cnc3ccc(NCc4cc(F)ccc4F)nn23)cc1)N1CCOCC1 [Example 2.4, {4-[6-(2,5-Difluoro-benzylamino)-imidazo[1,2-b]pyridazin-3-yl]-phenyl}-morpholin-4-yl-methanone]
IC50 [2]: 20 nM

Molecule: O=C(NCCN1CCOCC1)c1ccc(-c2cnc3ccc(NCc4cc(F)ccc4F)nn23)cc1 [Example 2.2, 4-[6(2,5-Difluorobenzylamino)-imidazo[1,2-b]pyridazin-3-yl]-N-(2-morpholin-4-yl-ethyl)benzamide]
IC50 [2]: 8 nM

B1: follistatin: an antagonist of activin signalling (protein, UniProt P19883 30-344, looked up)
Follistatin: GNCWLRQAKNGRCQVLYKTELSKEECCSTGRLSTSWTEEDVNDNTLFKWMIFNGGAPNCIPCKETCENVDCGPGKKCRMNKKNKPRCVCAPDCSNITWKGPVCGLDGKTYRNECALLKARCKEQPELEVQYQGRCKKTCRDVFCPGSSTCVVDQTNNAYCVTCNRICPEPASSEQYLCGNDGVTYSSACHLRKATCLLGRSIGLAYEGKCIKAKSCEDIQCTGGKKCLWDFKVGRGRCSLCDELCPDSKSDEPVCASDNATYASECAMKEAACSSGVLLEVKHSGSCNSISEDTEEEEEDEDQDYSFPISSILEW
destruction of lung architecture [3]: ameliorated
lung fibrosis [3]: attenuated
number of infiltrating cells [3]: markedly reduced
number of macrophages and neutrophils in bronchoalveolar lavage [3]: significantly reduced
protein content of bronchoalveolar lavage [3]: reduced the protein content

Now from value to molecule:

IC50 [1]: 150 nM
Molecule: Cn1cc(-c2cc(-c3cnc4ccc(NC5CCC(O)CC5)nn34)ccn2)cn1 (stereo not drawn) [Example 1.4, 4-{3-[2-(1-Methyl-1H-pyrazol-4-yl)-pyridin-4-yl]-imidazo[1,2-b]pyridazin-6-ylamino}-cyclohexanol]

IC50 [1]: 15 nM
Molecule: OC1CCC(Nc2ccc3ncc(-c4ccnc(C5CC5)c4)n3n2)CC1 (stereo not drawn) [Example 1.6, 4-[3-(2-Cyclopropyl-pyridin-4yl)-imidazo[1,2-b]pyridazin-6-ylamino]-cyclohexanol]

IC50 [1]: 5 nM
Molecule: OC1CCC(Nc2ccc3ncc(-c4cccc(-n5cccn5)c4)n3n2)CC1 (stereo not drawn) [Example 1.7, 4-[3-(3-Pyrazol-1-yl-phenyl)-imidazo[1,2-b]pyridazin-6-ylamino]-cyclohexanol]

IC50 [1]: 5 nM
Molecule: OC1CCC(Nc2ccc3ncc(-c4ccnc(-c5ccoc5)c4)n3n2)CC1 (stereo not drawn) [Example 1.3, 4-[3-(2-Furan-3-yl-pyridin-4-yl)-imidazo[1,2-b]pyridazin-6-ylamino]-cyclohexanol]

IC50 [2]: 21 nM
Molecule: O=C(NC1CCOCC1)c1cccc(-c2cnc3ccc(NCc4cc(F)ccc4F)nn23)c1 [Example 2.5]

IC50 [1]: 42 nM
Molecule: O[C@H]1CC[C@H](Nc2ccc3ncc(-c4ccnc(-c5ccncc5)c4)n3n2)CC1 [Example 1.1, 4-(3-[2,4′]Bipyridinyl-4-yl-imidazo[1,2-b]pyridazin-6-ylamino)-cyclohexanol]

IC50 [1]: 36 nM
Molecule: Cc1ccc(-c2cc(-c3cnc4ccc(NC5CCC(O)CC5)nn34)ccn2)s1 (stereo not drawn) [Example 1.2, 4-{3-[2-(5-Methyl-thiophen-2-yl)-pyridin-4-yl]-imidazo[1,2-b]pyridazin-6-ylamino}-cyclohexanol]
